Results published in patent US20230085307A1, “PYRIDAZINONE COMPOUND AND HERBICIDE” (NISSAN CHEMICAL CORPORATION, priority 2019, published 2023).

Assays:
green foxtail [1] = assay: Test Example 4: herbicidal effect by soil treatment (Table 19, symbol G); type: in vivo, green foxtail (Setaria viridis); settings: AAH 80 g/ha
Outline: (§1)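 Soil-surface application: an emulsion agent diluted with water to the predetermined dose is sprayed uniformly over seeds lying under roughly 1.5 cm of sterilized diluvial soil. Boxes stay in a greenhouse at 25° C. to 30° C. Three weeks later, each species is graded on previously defined criteria.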

redroot pigweed [2] = assay: Test Example 5: herbicidal effect by foliage application, plastic box (Table 20, symbol N); type: in vivo, redroot pigweed (Amaranthus retroflexus); settings: foliage application, AAH 80 g/ha, three weeks after application
Outline: (§2)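 Sow seeds spot-wise in sterilized diluvial soil; cover with ~1.5 cm soil. Grow 14 days in greenhouse, 25° C. to 30° C. Spray foliage with emulsion diluted to predetermined amount. Rate effect after 3 weeks.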

blackgrass [3] = assay: Test Example 5: herbicidal effect by foliage application, plastic box (Table 20, symbol J); type: in vivo, blackgrass (Alopecurus myosuroides); settings: foliage application, AAH 80 g/ha, three weeks after application
Outline: as §2

redroot pigweed [4] = assay: Test Example 4: herbicidal effect by soil treatment (Table 19, symbol N); type: in vivo, redroot pigweed (Amaranthus retroflexus); settings: AAH 80 g/ha
Outline: as §1

lambsquarters [5] = assay: Test Example 5: herbicidal effect by foliage application, plastic box (Table 20, symbol O); type: in vivo, lambsquarters (Chenopodium album); settings: foliage application, AAH 80 g/ha, three weeks after application
Outline: as §2

barnyard grass [6] = assay: Test Example 4: herbicidal effect by soil treatment (Table 19, symbol H); type: in vivo, barnyard grass (Echinochloa crus-galli); settings: AAH 80 g/ha
Outline: as §1

Chinese sprangletop = assay: Test Example 3: herbicidal effect by foliage application, Wagner pot (Table 18, symbol D); type: in vivo, chinese sprangletop (Leptochloa chinensis); settings: 80 g/ha
Outline: (§3)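 Plants were sown in alluvial soil held under 0.1–0.5 cm standing water and grown 14 days in a greenhouse at 25–30 °C. An emulsifiable formulation, water-diluted to the set dose, was then sprayed onto the foliage, and effects were scored three weeks later using previously defined criteria.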

persian speedwell [7] = assay: Test Example 4: herbicidal effect by soil treatment (Table 19, symbol R); type: in vivo, Persian speedwell (Veronica persica); settings: AAH 80 g/ha
Outline: as §1

southern crabgrass [8] = assay: Test Example 4: herbicidal effect by soil treatment (Table 19, symbol F); type: in vivo, southern crabgrass (Digitaria ciliaris); settings: AAH 80 g/ha
Outline: as §1

velvetleaf [9] = assay: Test Example 4: herbicidal effect by soil treatment (Table 19, symbol M); type: in vivo, velvetleaf (Abutilon theophrasti); settings: AAH 80 g/ha
Outline: as §1

wild oat [10] = assay: Test Example 5: herbicidal effect by foliage application, plastic box (Table 20, symbol I); type: in vivo, wild oat (Avena fatua); settings: foliage application, AAH 80 g/ha, three weeks after application
Outline: as §2

velvetleaf [11] = assay: Test Example 5: herbicidal effect by foliage application, plastic box (Table 20, symbol M); type: in vivo, velvetleaf (Abutilon theophrasti); settings: foliage application, AAH 80 g/ha, three weeks after application
Outline: as §2

barnyard grass [12] = assay: Test Example 5: herbicidal effect by foliage application, plastic box (Table 20, symbol H); type: in vivo, barnyard grass (Echinochloa crus-galli); settings: foliage application, AAH 80 g/ha, three weeks after application
Outline: as §2

lambsquarters [13] = assay: Test Example 4: herbicidal effect by soil treatment (Table 19, symbol O); type: in vivo, lambsquarters (Chenopodium album); settings: AAH 80 g/ha
Outline: as §1

Italian ryegrass [14] = assay: Test Example 4: herbicidal effect by soil treatment (Table 19, symbol K); type: in vivo, Italian ryegrass (Lolium multiflorum); settings: AAH 80 g/ha
Outline: as §1

windgrass [15] = assay: Test Example 4: herbicidal effect by soil treatment (Table 19, symbol L); type: in vivo, windgrass (Apera spica-venti); settings: AAH 80 g/ha
Outline: as §1

Italian ryegrass [16] = assay: Test Example 5: herbicidal effect by foliage application, plastic box (Table 20, symbol K); type: in vivo, Italian ryegrass (Lolium multiflorum); settings: foliage application, AAH 80 g/ha, three weeks after application
Outline: as §2

blackgrass [17] = assay: Test Example 4: herbicidal effect by soil treatment (Table 19, symbol J); type: in vivo, blackgrass (Alopecurus myosuroides); settings: AAH 80 g/ha
Outline: as §1

windgrass [18] = assay: Test Example 5: herbicidal effect by foliage application, plastic box (Table 20, symbol L); type: in vivo, windgrass (Apera spica-venti); settings: foliage application, AAH 80 g/ha, three weeks after application
Outline: as §2

persian speedwell [19] = assay: Test Example 5: herbicidal effect by foliage application, plastic box (Table 20, symbol R); type: in vivo, Persian speedwell (Veronica persica); settings: foliage application, AAH 80 g/ha, three weeks after application
Outline: as §2

chickweed [20] = assay: Test Example 5: herbicidal effect by foliage application, plastic box (Table 20, symbol P); type: in vivo, common chickweed (Stellaria media); settings: foliage application, AAH 80 g/ha, three weeks after application
Outline: as §2

wild oat [21] = assay: Test Example 4: herbicidal effect by soil treatment (Table 19, symbol I); type: in vivo, wild oat (Avena fatua); settings: AAH 80 g/ha
Outline: as §1

southern crabgrass [22] = assay: Test Example 5: herbicidal effect by foliage application, plastic box (Table 20, symbol F); type: in vivo, southern crabgrass (Digitaria ciliaris); settings: foliage application, AAH 80 g/ha, three weeks after application
Outline: as §2

rice flat sedge = assay: Test Example 3: herbicidal effect by foliage application, Wagner pot (Table 18, symbol E); type: in vivo, rice flat sedge (Cyperus iria); settings: 80 g/ha
Outline: as §3

green foxtail [23] = assay: Test Example 5: herbicidal effect by foliage application, plastic box (Table 20, symbol G); type: in vivo, green foxtail (Setaria viridis); settings: foliage application, AAH 80 g/ha, three weeks after application
Outline: as §2

chickweed [24] = assay: Test Example 4: herbicidal effect by soil treatment (Table 19, symbol P); type: in vivo, common chickweed (Stellaria media); settings: AAH 80 g/ha
Outline: as §1

barnyard grass [25] = assay: Test Example 3: herbicidal effect by foliage application, Wagner pot (Table 18, symbol H); type: in vivo, barnyard grass (Echinochloa crus-galli); settings: 80 g/ha
Outline: as §3

COc1nn(C)c(=O)c(-c2c(-c3ccc(OC(F)(F)F)cc3)sc3ccccc23)c1O [1-162]
G: green foxtail, herbicidal effect rating (green foxtail [1]): 0 (Herbicidal rate of 5% or less (almost no effect))
N: redroot pigweed, herbicidal effect (redroot pigweed [2]): 4 (Herbicidal rate of 70% or more and less than 90%)
J: blackgrass, herbicidal effect (blackgrass [3]): 0 (Herbicidal rate of 5% or less (almost no effect))
N: redroot pigweed, herbicidal effect rating (redroot pigweed [4]): 1 (Herbicidal rate of 5% or more and less than 20%)
O: lambsquarters, herbicidal effect (lambsquarters [5]): 3 (Herbicidal rate of 40% or more and less than 70%)
H: barnyard grass, herbicidal effect rating (barnyard grass [6]): 0 (Herbicidal rate of 5% or less (almost no effect))
herbicidal effect on D (Chinese sprangletop), rating 0-5 (Chinese sprangletop): 3 (Herbicidal rate of 40% or more and less than 70%)
R: persian speedwell, herbicidal effect rating (persian speedwell [7]): 0 (Herbicidal rate of 5% or less (almost no effect))
F: southern crabgrass, herbicidal effect rating (southern crabgrass [8]): 0 (Herbicidal rate of 5% or less (almost no effect))
M: velvetleaf, herbicidal effect rating (velvetleaf [9]): 0 (Herbicidal rate of 5% or less (almost no effect))
I: wild oat, herbicidal effect (wild oat [10]): 0 (Herbicidal rate of 5% or less (almost no effect))
M: velvetleaf, herbicidal effect (velvetleaf [11]): 3 (Herbicidal rate of 40% or more and less than 70%)
H: barnyard grass, herbicidal effect (barnyard grass [12]): 0 (Herbicidal rate of 5% or less (almost no effect))
O: lambsquarters, herbicidal effect rating (lambsquarters [13]): 4 (Herbicidal rate of 70% or more and less than 90%)
K: Italian ryegrass, herbicidal effect rating (Italian ryegrass [14]): 0 (Herbicidal rate of 5% or less (almost no effect))
L: windgrass, herbicidal effect rating (windgrass [15]): 0 (Herbicidal rate of 5% or less (almost no effect))
K: Italian ryegrass, herbicidal effect (Italian ryegrass [16]): 0 (Herbicidal rate of 5% or less (almost no effect))
J: blackgrass, herbicidal effect rating (blackgrass [17]): 0 (Herbicidal rate of 5% or less (almost no effect))
L: windgrass, herbicidal effect (windgrass [18]): 0 (Herbicidal rate of 5% or less (almost no effect))
R: persian speedwell, herbicidal effect (persian speedwell [19]): 5 (Herbicidal rate of 90% or more (almost completely withered))
P: chickweed, herbicidal effect (chickweed [20]): 5 (Herbicidal rate of 90% or more (almost completely withered))
I: wild oat, herbicidal effect rating (wild oat [21]): 0 (Herbicidal rate of 5% or less (almost no effect))
F: southern crabgrass, herbicidal effect (southern crabgrass [22]): 0 (Herbicidal rate of 5% or less (almost no effect))
herbicidal effect on E (rice flat sedge), rating 0-5 (rice flat sedge): 5 (Herbicidal rate of 90% or more (almost completely withered))
G: green foxtail, herbicidal effect (green foxtail [23]): 0 (Herbicidal rate of 5% or less (almost no effect))
P: chickweed, herbicidal effect rating (chickweed [24]): 2 (Herbicidal rate of 20% or more and less than 40%)
herbicidal effect on H (barnyard grass), rating 0-5 (barnyard grass [25]): 4 (Herbicidal rate of 70% or more and less than 90%)

COc1nn(C)c(=O)c(-c2c(-c3ccc(-c4ccccc4)cc3)sc3ccccc23)c1O [1-166]
G: green foxtail, herbicidal effect rating (green foxtail [1]): 0 (Herbicidal rate of 5% or less (almost no effect))
N: redroot pigweed, herbicidal effect (redroot pigweed [2]): 3 (Herbicidal rate of 40% or more and less than 70%)
J: blackgrass, herbicidal effect (blackgrass [3]): 0 (Herbicidal rate of 5% or less (almost no effect))
N: redroot pigweed, herbicidal effect rating (redroot pigweed [4]): 0 (Herbicidal rate of 5% or less (almost no effect))
O: lambsquarters, herbicidal effect (lambsquarters [5]): 2 (Herbicidal rate of 20% or more and less than 40%)
H: barnyard grass, herbicidal effect rating (barnyard grass [6]): 0 (Herbicidal rate of 5% or less (almost no effect))
herbicidal effect on D (Chinese sprangletop), rating 0-5 (Chinese sprangletop): 4 (Herbicidal rate of 70% or more and less than 90%)
R: persian speedwell, herbicidal effect rating (persian speedwell [7]): 1 (Herbicidal rate of 5% or more and less than 20%)
F: southern crabgrass, herbicidal effect rating (southern crabgrass [8]): 0 (Herbicidal rate of 5% or less (almost no effect))
M: velvetleaf, herbicidal effect rating (velvetleaf [9]): 0 (Herbicidal rate of 5% or less (almost no effect))
I: wild oat, herbicidal effect (wild oat [10]): 0 (Herbicidal rate of 5% or less (almost no effect))
M: velvetleaf, herbicidal effect (velvetleaf [11]): 0 (Herbicidal rate of 5% or less (almost no effect))
H: barnyard grass, herbicidal effect (barnyard grass [12]): 0 (Herbicidal rate of 5% or less (almost no effect))
O: lambsquarters, herbicidal effect rating (lambsquarters [13]): 0 (Herbicidal rate of 5% or less (almost no effect))
K: Italian ryegrass, herbicidal effect rating (Italian ryegrass [14]): 0 (Herbicidal rate of 5% or less (almost no effect))
L: windgrass, herbicidal effect rating (windgrass [15]): 0 (Herbicidal rate of 5% or less (almost no effect))
K: Italian ryegrass, herbicidal effect (Italian ryegrass [16]): 0 (Herbicidal rate of 5% or less (almost no effect))
J: blackgrass, herbicidal effect rating (blackgrass [17]): 0 (Herbicidal rate of 5% or less (almost no effect))
L: windgrass, herbicidal effect (windgrass [18]): 0 (Herbicidal rate of 5% or less (almost no effect))
R: persian speedwell, herbicidal effect (persian speedwell [19]): 5 (Herbicidal rate of 90% or more (almost completely withered))
P: chickweed, herbicidal effect (chickweed [20]): 3 (Herbicidal rate of 40% or more and less than 70%)
I: wild oat, herbicidal effect rating (wild oat [21]): 0 (Herbicidal rate of 5% or less (almost no effect))
F: southern crabgrass, herbicidal effect (southern crabgrass [22]): 0 (Herbicidal rate of 5% or less (almost no effect))
herbicidal effect on E (rice flat sedge), rating 0-5 (rice flat sedge): 5 (Herbicidal rate of 90% or more (almost completely withered))
G: green foxtail, herbicidal effect (green foxtail [23]): 0 (Herbicidal rate of 5% or less (almost no effect))
P: chickweed, herbicidal effect rating (chickweed [24]): 4 (Herbicidal rate of 70% or more and less than 90%)
herbicidal effect on H (barnyard grass), rating 0-5 (barnyard grass [25]): 4 (Herbicidal rate of 70% or more and less than 90%)
